Source: ChEMBL document CHEMBL4725496, “Escaping from Flatland: Antimalarial Activity of sp-Rich Bridged Pyrrolidine Derivatives” (ACS Med Chem Lett, 2020)
Values belong to the molecule of their own block, whether it stands above or below them.

Tests used:
Plasmodium falciparum [1] = test: Antimalarial activity against chloroquine-sensitive Plasmodium falciparum 3D7 infected in human erythrocytes assessed as reduction in parasitemia incubated for 72 hrs by SYBR green dye based fluorescence assay; type: functional, organism-based; settings: 3D7, Erythrocyte
Plasmodium falciparum [2] = test: Antimalarial activity against chloroquine-sensitive Plasmodium falciparum 3D7 infected in human erythrocytes assessed as reduction in parasitemia at 10 uM incubated for 72 hrs by SYBR green dye based fluorescence assay relative to control; type: functional; settings: 3D7, Erythrocyte
HepG2 = test: Cytotoxicity against human HepG2 cells incubated for 72 hrs by Cell Titer Glo assay; type: cell-based; settings: HepG2, 72 h
[3] = Kinetic solubility of compound in PBS buffer measured after 2 hrs under shaking condition by UV spectroscopic analysis; type: physicochemical; settings: read-out: Kinetic_solubility
[4] = Intrinsic clearance in human liver microsome at 1 uM measured upto 60 mins by LC-MS/MS analysis; type: ADME; settings: microsomes, 1 h
Plasmodium falciparum [5] = test: Antimalarial activity against […] Plasmodium falciparum 3D7 by LDH assay; type: functional, organism-based
[6] = 1-Octanol/phosphate buffered-saline distribution coefficient, logD of compound in pH 7.4 at 75 uM measured after 2 hrs under shaking condition by LC-MS analysis; type: physicochemical
[7] = Intrinsic clearance in rat hepatocytes at 1 uM incubated upto 90 mins measured per 10^6 cells by LC-MS/MS analysis; type: ADME, cell-based, Hepatocyte; settings: 1.5 h, time 0-90 min
Plasmodium falciparum [8] = test: Antimalarial activity against multi-drug-resistant Plasmodium falciparum Dd2 by LDH assay; type: functional, organism-based

Compound: O=C(NCC12CC(CN1Cc1ccccc1)C2)c1ccc(Cl)c(Br)c1
- IC50 (Plasmodium falciparum [1]): 5.2 µM

Compound: O=C(Cc1cc(F)ccc1F)NCC12CC(CN1Cc1ccccc1)C2
- inhibition at 10 µM (Plasmodium falciparum [2]): -8.2%

Compound: O=C(NCC12CC(CN1Cc1ccccc1)C2)C1CC1c1cc(Cl)cc(Cl)c1 (configuration not stated)
- IC50 (Plasmodium falciparum [1]): 4.5 µM

Compound: O=C(NCC12CC(CN1Cc1ccccc1)C2)c1ccccc1Cl
- inhibition at 10 µM (Plasmodium falciparum [2]): -7.9%

Compound: O=C(NCC12CC(CN1Cc1ccccc1)C2)c1ccc(C(F)(F)F)cc1Cl
- IC50 (Plasmodium falciparum [1]): 8.7 µM

Compound: Cc1nn(-c2ccccc2)nc1C(=O)NCC12CC(CN1Cc1ccccc1)C2
- IC50 (Plasmodium falciparum [1]): 14 µM

Compound: COc1ccc(C(=O)NCC23CC(CN2Cc2ccccc2)C3)cc1Cl
- IC50 (Plasmodium falciparum [1]): 16 µM

Compound: Cc1cc2[nH]c(C(=O)NCC34CC(CN3Cc3ccccc3)C4)cc2o1
- IC50 (Plasmodium falciparum [1]): 11 µM

Compound: O=C(NCC12CC(CN1Cc1ccccc1)C2)c1ccc2[nH]ccc2c1
- IC50 (Plasmodium falciparum [1]): 17 µM

Compound: O=C(Cc1ccc(F)c(Br)c1)NCC12CC(CN1Cc1ccccc1)C2
- inhibition at 10 µM (Plasmodium falciparum [2]): 40%

Compound: O=C(NCC12CC(CN1Cc1ccccc1)C2)c1ccc(Cl)c(C(F)(F)F)c1
- IC50 (Plasmodium falciparum [1]): 3.3 µM

Compound: O=C(NCC12CC(CN1Cc1ccccc1)C2)c1cccc(Cl)c1Cl
- inhibition at 10 µM (Plasmodium falciparum [2]): -8.2%

Compound: O=C(NCC12CC(CN1Cc1ccccc1)C2)c1coc2ccccc12
- IC50 (Plasmodium falciparum [1]): 15 µM

Compound: O=C(/C=C/c1ccccc1Cl)NCC12CC(CN1Cc1ccccc1)C2
- IC50 (Plasmodium falciparum [1]): 5.8 µM

Compound: COc1ccc2cc(C(=O)NCC34CC(CN3Cc3ccccc3)C4)ccc2c1
- IC50 (Plasmodium falciparum [1]): 3.6 µM

Compound: O=C(/C=C/c1ccccc1F)NCC12CC(CN1Cc1ccccc1)C2
- IC50 (Plasmodium falciparum [1]): 11 µM

Compound: O=C(NCC12CC(CN1Cc1ccccc1)C2)c1cccc(Br)c1
- inhibition at 10 µM (Plasmodium falciparum [2]): 35%

Compound: CC(C)(C)c1cc(C(=O)NCC23CC(CN2Cc2ccccc2)C3)cc(C(C)(C)C)c1
- IC50 (Plasmodium falciparum [1]): 2.6 µM

Compound: O=C(NCC12CC(CN1Cc1ccccc1)C2)c1ccc2ccccc2c1
- IC50 (Plasmodium falciparum [1]): 14 µM

Compound: O=C(NCC12CC(CN1Cc1ccccc1)C2)c1cccc(Cl)c1
- IC50 (Plasmodium falciparum [1]): 13 µM

Compound: Cc1cc(C(=O)NCC23CC(CN2Cc2ccccc2)C3)no1
- IC50 (Plasmodium falciparum [1]): 3.4 µM

Compound: O=C(NCC12CC(CN1Cc1ccccc1)C2)c1ccc2cccc(Br)c2n1
- IC50 (Plasmodium falciparum [1]): 9 µM

Compound: O=C(NCC12CC(CN1Cc1ccccc1)C2)c1cc(F)ccc1F
- inhibition at 10 µM (Plasmodium falciparum [2]): 67%

Compound: Cc1cccc(C(=O)NCC23CC(CN2Cc2ccccc2)C3)c1
- inhibition at 10 µM (Plasmodium falciparum [2]): 7.6%

Compound: O=C(NCC12CC(CN1Cc1ccccc1)C2)c1cc(F)cc(C(F)(F)F)c1
- IC50 (Plasmodium falciparum [1]): 8.9 µM

Compound: O=C(Cc1cccc(C(F)(F)F)c1)NCC12CC(CN1Cc1ccccc1)C2
- IC50 (Plasmodium falciparum [1]): 22 µM

Compound: COc1cccc(C(=O)NCC23CC(CN2Cc2ccccc2)C3)c1C
- IC50 (Plasmodium falciparum [1]): 15 µM

Compound: O=C(Cc1ccc(Cl)c(Cl)c1)NCC12CC(CN1Cc1ccccc1)C2
- IC50 (Plasmodium falciparum [1]): 11 µM

Compound: C=Cc1ccc(C(=O)NCC23CC(CN2Cc2ccccc2)C3)cc1
- IC50 (Plasmodium falciparum [1]): 8.5 µM

Compound: O=C(NCC12CC(CN1Cc1ccccc1)C2)c1ccccc1
- inhibition at 10 µM (Plasmodium falciparum [2]): -20%

Compound: O=C(NCC12CC(CN1Cc1ccccc1)C2)c1cc(Br)cs1
- IC50 (Plasmodium falciparum [1]): 22 µM

Compound: O=C(NCC12CC(CN1Cc1ccccc1)C2)c1ccc2[nH]nc(Br)c2c1
- IC50 (Plasmodium falciparum [1]): 5.5 µM

Compound: O=C(NCC12CC(CN1Cc1ccccc1)C2)c1ccc(F)c(Cl)c1
- IC50 (Plasmodium falciparum [1]): 8.5 µM

Compound: O=C(NCC12CC(CN1Cc1ccccc1)C2)c1ccc(Cl)cc1
- inhibition at 10 µM (Plasmodium falciparum [2]): 38%

Compound: O=C(NCC12CC(CN1Cc1ccccc1)C2)c1ccc(F)c(Br)c1
- IC50 (Plasmodium falciparum [1]): 12 µM

Compound: O=C(NCC12CC(CN1Cc1ccccc1)C2)c1cc(Cl)cc(C(F)(F)F)c1
- IC50 (Plasmodium falciparum [1]): 1.3 µM
- IC50 (HepG2): > 17 µM
- solubility kinetic at 2 h [3]: > 200 µM
- CLint [4]: 27 µL/min/mg
- IC50 (Plasmodium falciparum [5]): 4.3 µM
- logD at 2 h, 75 µM [6]: 3.2
- CLint [7]: 8 µL/min/1e6 cells
- IC50 (Plasmodium falciparum [8]): 5.4 µM

Compound: O=C(NCC12CC(CN1Cc1ccccc1)C2)c1ccc(Cl)c(Cl)c1
- IC50 (Plasmodium falciparum [1]): 5.1 µM

Compound: CSc1ccc(Cl)c(C(=O)NCC23CC(CN2Cc2ccccc2)C3)c1
- IC50 (Plasmodium falciparum [1]): 18 µM

Compound: O=C(NCC12CC(CN1Cc1ccccc1)C2)C1(c2ccc(Cl)cc2Cl)CC1
- IC50 (Plasmodium falciparum [1]): 1.1 µM

Compound: O=C(NCC12CC(CN1Cc1ccccc1)C2)c1cc(Br)cc(C(F)(F)F)c1
- IC50 (Plasmodium falciparum [1]): 2.7 µM

Compound: O=C(CCCC1CCCCC1)NCC12CC(CN1Cc1ccccc1)C2
- IC50 (Plasmodium falciparum [1]): 13 µM

Next, values leading:

- IC50 (Plasmodium falciparum [1]): 6.2 µM
Compound: COc1ccc(NC(=O)OC(C)(C)C)c(C(=O)NCC23CC(CN2Cc2ccccc2)C3)c1

- IC50 (Plasmodium falciparum [1]): 22 µM
Compound: O=C(/C=C/c1cccc(F)c1)NCC12CC(CN1Cc1ccccc1)C2

- IC50 (Plasmodium falciparum [1]): 15 µM
Compound: Cc1ccc(-c2cc(C(=O)NCC34CC(CN3Cc3ccccc3)C4)[nH]n2)o1

- IC50 (Plasmodium falciparum [1]): 9.4 µM
Compound: O=C(NCC12CC(CN1Cc1ccccc1)C2)c1ccc(-c2ccco2)cc1

- IC50 (Plasmodium falciparum [1]): 12.7 µM
Compound: O=C(NCC12CC(CN1Cc1ccccc1)C2)c1ccc(Br)s1

- IC50 (Plasmodium falciparum [1]): 19 µM
Compound: COc1cccc2c(C(=O)NCC34CC(CN3Cc3ccccc3)C4)c[nH]c12

- IC50 (Plasmodium falciparum [1]): 9.6 µM
Compound: COc1ccc(C2(C(=O)NCC34CC(CN3Cc3ccccc3)C4)CCCC2)cc1

- IC50 (Plasmodium falciparum [1]): 8.8 µM
Compound: O=C(NCC12CC(CN1Cc1ccccc1)C2)c1ccc(Br)cc1Cl

- IC50 (Plasmodium falciparum [1]): 13 µM
Compound: O=C(/C=C/c1ccc(F)cc1)NCC12CC(CN1Cc1ccccc1)C2

- IC50 (Plasmodium falciparum [1]): 7.2 µM
Compound: CC(C)(C)OC(=O)Nc1ccccc1C(=O)NCC12CC(CN1Cc1ccccc1)C2

- IC50 (Plasmodium falciparum [1]): 5.1 µM
Compound: O=C(NCC12CC(CN1Cc1ccccc1)C2)c1c[nH]c2c(Cl)cccc12

- IC50 (Plasmodium falciparum [1]): 5.7 µM
Compound: COc1cc(C(=O)NCC23CC(CN2Cc2ccccc2)C3)ccc1Br

- IC50 (Plasmodium falciparum [1]): 19 µM
Compound: O=C(NCC12CC(CN1Cc1ccccc1)C2)c1ccc(-n2cccn2)cc1Cl

- IC50 (Plasmodium falciparum [1]): 3.6 µM
Compound: O=C(NCC12CC(CN1Cc1ccccc1)C2)c1ccc(Br)c(Cl)c1

- IC50 (Plasmodium falciparum [1]): 3.9 µM
Compound: O=C(NCC12CC(CN1Cc1ccccc1)C2)c1cc2cc(Br)ccc2o1

- IC50 (Plasmodium falciparum [1]): 12.7 µM
Compound: O=C(NCC12CC(CN1Cc1ccccc1)C2)c1ccc(OC(F)(F)F)cc1

- IC50 (Plasmodium falciparum [1]): 9.4 µM
Compound: Cc1cc(C(=O)NCC23CC(CN2Cc2ccccc2)C3)ccc1Br

- IC50 (Plasmodium falciparum [1]): 1.6 µM
Compound: O=C(NCC12CC(CN1Cc1ccccc1)C2)c1cc2c(Br)cccc2[nH]1

- IC50 (Plasmodium falciparum [1]): 6.2 µM
Compound: O=C(NCC12CC(CN1Cc1ccccc1)C2)c1ccc(OCc2ccccc2)cc1

- IC50 (Plasmodium falciparum [1]): 3.7 µM
Compound: O=C(NCC12CC(CN1Cc1ccccc1)C2)c1cc(Br)c(Br)s1

- IC50 (Plasmodium falciparum [1]): 9.4 µM
Compound: O=C(NCC12CC(CN1Cc1ccccc1)C2)c1cccc(OC(F)(F)F)c1

- IC50 (Plasmodium falciparum [1]): 6.2 µM
Compound: O=C(NCC12CC(CN1Cc1ccccc1)C2)C1(c2ccc(Cl)cc2)CCC1

- IC50 (Plasmodium falciparum [1]): 12 µM
Compound: O=C(NCC12CC(CN1Cc1ccccc1)C2)c1cc(F)c(Cl)c(F)c1

- IC50 (Plasmodium falciparum [1]): 19 µM
Compound: Cc1ccc(Cl)cc1C(=O)NCC12CC(CN1Cc1ccccc1)C2

- IC50 (Plasmodium falciparum [1]): 24 µM
Compound: O=C(Cc1ccc(Br)c(F)c1)NCC12CC(CN1Cc1ccccc1)C2

- IC50 (Plasmodium falciparum [1]): 24 µM
Compound: CC(C)(C)OC(=O)N[C@H](C(=O)NCC12CC(CN1Cc1ccccc1)C2)C1CCCCC1

- IC50 (Plasmodium falciparum [1]): 10 µM
Compound: O=C(NCC12CC(CN1Cc1ccccc1)C2)c1ccc(Br)c(F)c1

- IC50 (Plasmodium falciparum [1]): 7.1 µM
Compound: Cn1ccc2ccc(C(=O)NCC34CC(CN3Cc3ccccc3)C4)cc21

- IC50 (Plasmodium falciparum [1]): 7.4 µM
Compound: CCCCCCCCCC(=O)NCC12CC(CN1Cc1ccccc1)C2
